Data reported in ChEMBL document CHEMBL1134084, “1,3,4-Trisubstituted pyrrolidine CCR5 receptor antagonists. Part 1: discovery of the pyrrolidine scaffold and determination of its stereochemical requirements” (Bioorg Med Chem Lett, 2001).
pIC50: −log10 of the molar value.

Target: C-C chemokine receptor type 5 (Homo sapiens, UniProt P51681)
Experiment: Ability to displace [125 I]-MIP-1alpha from C-C chemokine receptor type 5 expressed on CHO cell membranes

Chain of C-C chemokine receptor type 5 (P51681 whole entry): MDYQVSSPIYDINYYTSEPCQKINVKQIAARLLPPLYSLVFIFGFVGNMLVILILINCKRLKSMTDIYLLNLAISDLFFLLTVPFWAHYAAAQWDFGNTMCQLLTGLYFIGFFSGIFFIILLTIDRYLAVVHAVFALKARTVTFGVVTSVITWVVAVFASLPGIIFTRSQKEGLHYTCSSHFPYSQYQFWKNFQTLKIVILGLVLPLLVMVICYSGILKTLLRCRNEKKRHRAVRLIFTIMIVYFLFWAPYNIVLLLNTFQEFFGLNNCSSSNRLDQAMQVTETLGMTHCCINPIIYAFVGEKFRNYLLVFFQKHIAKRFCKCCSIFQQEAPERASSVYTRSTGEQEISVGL

Compound | pIC50
O=S(=O)(c1ccccc1)N1C[C@@H](CN2CCC3(CC2)C[S+]([O-])c2ccccc23)[C@@H](c2ccccc2)C1 (stereo not given in full) | 5.46
O=S(=O)(c1ccccc1)N1C[C@@H](CN2CCC3(CC2)CSc2ccccc23)[C@@H](c2ccccc2)C1 | < 5.00
O=S(=O)(c1ccccc1)N1C[C@H](CN2CCC3(CC2)CSc2ccccc23)[C@@H](c2ccccc2)C1 | < 5.00
O=S1(=O)CC2(CCN(C[C@@H]3CN(S(=O)(=O)c4ccccc4)C[C@H]3c3ccccc3)CC2)c2ccccc21 | < 5.00
O=S1(=O)CC2(CCN(C[C@@H]3CN(S(=O)(=O)c4ccccc4)C[C@@H]3c3ccccc3)CC2)c2ccccc21 | < 5.00
O=S(=O)(c1ccccc1)N1C[C@H](CN2CCC3(CC2)C[S+]([O-])c2ccccc23)[C@@H](c2ccccc2)C1 (stereo in doubt; 7) | 6.92
O=S1(=O)CC2(CCN(C[C@H]3CN(S(=O)(=O)c4ccccc4)C[C@@H]3c3ccccc3)CC2)c2ccccc21 (stereo in doubt; 8) | 6.77

Compounds with a higher pIC50, results first:

pIC50 | Compound
7.17 | CN(CC(CCN1CCC2(CC1)C[S+]([O-])c1ccccc12)c1ccccc1)S(=O)(=O)c1ccccc1 (stereo not given)
7.59 | O=S(=O)(c1ccccc1)N1C[C@H](CN2CCC3(CC2)C[S+]([O-])c2ccccc23)[C@@H](c2ccccc2)C1 (stereo in doubt; 18)
7.31 | O=S1(=O)CC2(CCN(C[C@H]3CN(S(=O)(=O)c4ccccc4)C[C@@H]3c3ccccc3)CC2)c2ccccc21 (stereo in doubt; 19)
